From patent US11912716B2 (priority 2018, dated 2024)

Key:
[1] = system: morphine-dependent mice; assay: morphine-induced physical dependence, withdrawal jumping (Example 15); assay type: in vivo, Kunming mice; settings: 1 g/kg, 3 hours before naloxone
[2] = system: SD rats; assay: addictive potential: induction of conditioned place preference (Example 14); settings: for CPP SCORE: morphine 10 mg/kg s.c. daily for four consecutive days, hydrochloride
[3] = system: morphine-dependent animals; assay: naloxone-precipitated morphine-withdrawal jumping (Example 10); assay type: in vivo, Kunming mice
[4] = system: formation of conditioned place preference induced by morphine in rats; assay: formation of conditioned place preference induced by morphine, concomitant administration (Example 13); assay type: in vivo, SD rats; settings: 70 mg/kg oral 30 minutes before each morphine injection (10 mg/kg s.c.), four consecutive days
[5] = system: morphine-induced conditioned place preference behavior in rats; assay: morphine-induced conditioned place preference behavior, single oral administration before test (Example 12); assay type: in vivo, SD rats; settings: 70 mg/kg single oral dose 60 minutes before test, morphine 10 mg/kg s.c. for four days
[6] = 0.125 g/kg intragastric, 1 hour after administration
[7] = 0.25 g/kg intragastric, 1 hour after administration
[8] = 0.5 g/kg intragastric, 1 hour after administration
[9] = 0.5 g/kg intragastric, 3 hours after administration

**Q.** What does the source list for `CC(=O)O[C@H]1[C@H](OC(C)=O)[C@H]([C@@](C)(O)CC[C@]2(C)OC(C)(C)[C@H]3CC[C@]2(C)O3)[C@@]2(C)CC[C@@H]3OC(C)(C)[C@H](O)CC[C@@]3(C)[C@H]12` [limaxol A, reference compound]?
**A.** Inhibition of morphine-withdrawal jumping [1]: 21.26%; Jumping times (Mean ± SEM) [1]: 30.0 ± 9.7

**Q.** `CN1CC[C@]23c4c5ccc(O)c4O[C@H]2[C@@H](O)C=C[C@H]3[C@H]1C5.Cl` [morphine, morphine hydrochloride] was tested. Which “induction of conditioned place preference (in words)” value ([2]; morphine 10 mg/kg s.c.) did it give?
**A.** induced conditioned place preference behavior

**Q.** And the “CPP SCORE” value [2]?
**A.** 208.3 ± 16.2 s

**Q.** And the “CPP SCORE” value ([2]; listed as Morphine)?
**A.** 208.3 ± 16.2 n = 10 s

**Q.** What does the source list for `CCC(=O)C(CC(C)N(C)C)(c1ccccc1)c1ccccc1` (stereo not drawn) [methadone, reference compound]?
**A.** Jumping times (Mean ± SEM) ([3]; methadone 20 mg/kg intragastric, 1 hour before naloxone, jumpings within 30 minutes): 33.8 ± 3.3; withdrawal jumping symptoms versus morphine model group (in words) ([3]; methadone 20 mg/kg, 1 hour after administration): significantly reduced

**Q.** Which “Inhibition of morphine-withdrawal jumping” value [1] does the source give for `CC(=O)O[C@H]1[C@H](OC(C)=O)[C@H]([C@@](C)(O)CC[C@@H]2OC(C)(C)[C@H]3CC[C@]2(C)O3)[C@@]2(C)CC[C@@H]3OC(C)(C)[C@H](OC(C)=O)CC[C@@]3(C)[C@H]12` [3,12,13-triacetyl limaxol A, (3R,5aS,7aS,8R,9R,10R,10aR,10bS)-dodecahydro-8-((S)-2-hydroxy-4-((1S,2S,5R)-1,4,4-trimethyl-3,8-dioxa-bicyclo[3.2.1]octan-2-yl)butan-2-yl)-4,4,7a,10b-tetramethyl-1H-indeno[5,4-b]oxepine-3,9,10-triol triacetate] here?
**A.** 43.13%

**Q.** And the “Jumping times (Mean ± SEM)” value [1]?
**A.** 21.7 ± 6.9

**Q.** What about the “% Inhibition of morphine-withdrawal jumping” value (from here on “% Inhibition”) [3, 6] of the same compound?
**A.** 3.0 ± 12.2%

**Q.** And the “Jumping times (Mean ± SEM)” value [3, 6]?
**A.** 33.5 ± 4.1

**Q.** What about the “% Inhibition” value [3, 7] of the same compound?
**A.** 21.1 ± 28.2%

**Q.** And the “Jumping times (Mean ± SEM)” value [3, 7]?
**A.** 27.5 ± 9.4

**Q.** And the “% Inhibition” value [3, 8]?
**A.** 48.2 ± 7.5%

**Q.** What about the “Jumping times (Mean ± SEM)” value [3, 8] of the same compound?
**A.** 18.5 ± 2.4

**Q.** And the “% Inhibition” value [3, 9]?
**A.** 45.0 ± 17.0%

**Q.** And the “Jumping times (Mean ± SEM)” value [3, 9]?
**A.** 16.7 ± 4.9

**Q.** What about the “CPP SCORE” value ([4]; listed as Triacetyl limaxol A) of the same compound?
**A.** 223.8 ± 34.0 n = 6 s

**Q.** What about the “CPP SCORE” value ([4]; listed as triacetyl limaxol A) of the same compound?
**A.** 318.5 ± 90.9 s

**Q.** And the “CPP SCORE” value ([5]; listed as Triacetyl limaxol A)?
**A.** 318.5 ± 90.9 n = 7 s

**Q.** What about the “CPP SCORE” value ([5]; listed as triacetyl limaxol A) of the same compound?
**A.** 318.5 ± 90.9 s
